Assay results taken from US4588750A, “Therapeutic compositions for reducing sebum secretion” (Hoffmann-La Roche Inc., priority 1983, dated 1986).

Key:
sebum secretion = assay: Inhibition of testosterone propionate-stimulated sebum secretion in castrated male rats (Table I); format: in vivo; settings: for Mean ± S.E. "Sebum" / % Inhibition of testosterone-stimulated increase in "sebum": 14 days
Procedure: The effect of the (E) form of the compound of formula I on sebum secretion in mammals, such as rats, was determined according to the following procedure. Male rats weighing about 50-60 g. were castrated at the age of 21-22 days. One week after surgery, the rats were washed in a detergent solution to remove "sebum" which was secreted prior to the test period. One group of rats were treated only with the carrier vehicles employed. Another group of rats received only testosterone propionate in sesame oil, 100 ug/0.2 ml/rat/day […]. Other groups of rats were given testosterone propionate in sesame oil (100 ug/0.2 ml/rat/day subcutaneously) and 1,2,3,4-tetrahydro-1,1,4,4-tetramethyl-6-[(E)-α-methylstyryl]naphthalene, with different amounts of 1,2,3,4-tetrahydro-1,1,4,4-tetramethyl-6[(E)-α-methylstyryl]naphthalene being administered to each of the other groups orally in 0.2 ml/rat/day propylene glycol. The rats were treated with the compounds for 14 days. On the 15th day total body immersion in a fixed volume of acetone with mixing for two minutes removed surface "sebum" from skin and fur. An aliquot of the solvent bath was dried and the solid residue was measured gravimetrically. Inhibition of the testosterone-stimulated increase in "sebum" over solely testosterone propionate stimulated rats was used as the parameter of response.

[1] = system: sebaceous glands (flank organs); assay: Inhibition of testosterone propionate-stimulated flank organ weight increase in castrated male hamsters (Table II); format: in vivo
Procedure: The effect of the (E) form of the compound of formula I on sebaceous glands in mammals was further determined using hamsters, according to the following procedure. […] Animals were treated for 14 days and the response was measured by weight changes in flank organs removed at autopsy. Separate groups of hamsters served as vehicle controls and testosterone alone groups. Activity was measured by inhibition of the increase in weight which occurs in response to stimulation with testosterone propionate.

[2] = system: abdominal sebaceous gland pad organs; assay: Inhibition of testosterone-stimulated abdominal sebaceous gland pad weight increase in castrated male gerbils (Table III); format: in vivo
Procedure: The effect of the (E) form of the compound of formula I on sebaceous glands in mammals was further determined using gerbils, according to the following procedure. Male gerbils were castrated at 8 weeks of age and one week after surgery were treated with 5 ug free testosterone and 1,2,3,4-tetrahydro-1,1,4,4-tetramethyl-6-[(E)-α-methylstyryl]naphthalene topically in acetone on the abdominal sebaceous gland pad organs. Animals were treated for 14 days and the response was measured by weight changes in these organs removed at autopsy. Separate groups of gerbils served as vehicle controls and testosterone alone groups. Activity was measured by inhibition of the increase in weight which occurs in response to stimulation with testosterone.

Hypervitaminosis A test = assay: Hypervitaminosis A test; set-up: species or system mice; settings: mouse, in vivo
Procedure: A hypervitaminosis A test was carried out on mice weighing 25-27 g. which received i.p. injections of 1,2,3,4-tetrahydro-1,1,4,4-tetramethyl-6-[(E)-α-methylstyryl]naphthalene in arachis oil over a 14 day period. Hypervitaminosis A is defined as being that condition of the animals where the symptoms (weight loss, skin desquamtion, loss of hair, bone fractures of extremities) added up to at least 3, c.f. W. Bollag, Cancer, 1974, 10, 731.

[3] = Teratogenicity tests, for fetal abnormalities; format: in vivo, Charles River CD rats; settings: 10, 50 or 150 mg/kg daily orally, gestation days 8 and 9
Procedure: In order to further determine the safety of the (E) form of the compound of formula I teratogenicity tests, for fetal abnormalities, were carried out in rats according to the following procedure. 1,2,3,4-tetrahydro-1,1,4,4-tetramethyl-6-[(E)-α-methylstyryl]naphthalene was provided to Charles River CD rats on gestation days 8 and 9 using a daily dose of 10 , 50 or 150 mg/kg of this substance dissolved or suspended in a polyethelene glycol formulation containing traces of antioxidants (ascorbyl palmitate and butylated hydroxyanisole). The compound was administered orally at a constant volume of 5 ml/kg. The rats were then sacrificed on gestation day 20 and examined.

[4] = Skin irritation, topical application to the ears; format: in vivo, Charles River CD-1 mice; settings: topically in 25 μl/day acetone, doses up to 100 μg/day, 7 consecutive days
Procedure: 1,2,3,4-tetrahydro-1,1,4,4-tetramethyl-6-[(E)-α-methylstyryl]naphthalene was applied topically to the ears of 21-day-old male Charles River CD-1 mice for 7 consecutive days in 25 μl/day acetone. During treatment mice are observed for development of erythema on the ears, and uniform skin punches are taken at autopsy on day 8. Wet and dry weights of the skin samples were determined and compared to weights from vehicle-treated control animals. Increases in fluid content of the skin punches served as a measure of edema when irritation and inflammation had occurred.

[5] = General tolerability statement; format: in vivo; settings: pharmacologically suitable dosages
papilloma = settings: cited from earlier work

## C/C(=C\c1ccccc1)c1ccc2c(c1)C(C)(C)CCC2(C)C [1,2,3,4-tetrahydro-1,1,4,4-tetramethyl-6-[(E)-α-methylstyryl]naphthalene]
Sebum secretion; 0.5 ug/rat/day p.o. + T.P. 100 ug/rat/day s.c., 8 rats, NS vs T.P. alone
  Mean ± S.E. "Sebum": 25.1 ± 1.9 ug/100 ul
Sebum secretion; 1 ug/rat/day p.o. + T.P. 100 ug/rat/day s.c., 8 rats, NS vs T.P. alone
  Mean ± S.E. "Sebum": 26.8 ± 1.6 ug/100 ul
Sebum secretion; 2 ug/rat/day p.o. + T.P. 100 ug/rat/day s.c., 8 rats, NS vs T.P. alone
  Mean ± S.E. "Sebum": 22.1 ± 1.2 ug/100 ul
Sebum secretion; 4 ug/rat/day p.o. + T.P. 100 ug/rat/day s.c., 8 rats, NS vs T.P. alone
  Mean ± S.E. "Sebum": 21.6 ± 1.6 ug/100 ul
Sebum secretion; 10 ug/rat/day p.o. + T.P. 100 ug/rat/day s.c.
  % Inhibition of testosterone-stimulated increase in "sebum": 61%
Sebum secretion; 10 ug/rat/day p.o. + T.P. 100 ug/rat/day s.c., 9 rats, p<.01 vs T.P. alone
  Mean ± S.E. "Sebum": 23.4 ± 1.6 ug/100 ul
Sebum secretion; 20 ug/rat/day p.o. + T.P. 100 ug/rat/day s.c.
  % Inhibition of testosterone-stimulated increase in "sebum": 70%
Sebum secretion; 20 ug/rat/day p.o. + T.P. 100 ug/rat/day s.c., 9 rats, p<.01 vs T.P. alone
  Mean ± S.E. "Sebum": 22.4 ± 1.6 ug/100 ul
Sebum secretion; 40 ug/rat/day p.o. + T.P. 100 ug/rat/day s.c.
  % Inhibition of testosterone-stimulated increase in "sebum": 73%
Sebum secretion; 40 ug/rat/day p.o. + T.P. 100 ug/rat/day s.c., 9 rats, p<.001 vs T.P. alone
  Mean ± S.E. "Sebum": 22.1 ± 0.9 ug/100 ul
Sebum secretion; 100 ug/rat/day p.o. + T.P. 100 ug/rat/day s.c.
  % Inhibition of testosterone-stimulated increase in "sebum": 93%
Sebum secretion; 100 ug/rat/day p.o. + T.P. 100 ug/rat/day s.c., 9 rats, p<.001 vs T.P. alone
  Mean ± S.E. "Sebum": 19.9 ± 1.2 ug/100 ul
Sebum secretion; 100 ug/rat/day p.o. + T.P. 100 ug/rat/day s.c., compared to T.P. alone
  sebum secretion (in words): decreased to virtually normal level
[1]; 0.5 μg topically + T.P. 5 ug, 14 days, 9 hamsters
  % Inhibition of testosterone-stimulated increase in flank organ weight: 38%
[1]; 0.5 μg topically + T.P. 5 ug, 14 days, 9 hamsters, p<.001 vs T.P. alone
  Mean ± S.E. Flank Organ: 26.0 ± 1.6 mg
[1]; 0.5 ug/animal/day topically with 5 μg T.P., vs testosterone alone
  inhibition of flank organ weight increase: ~38%
[2]; 1 ug topically + testosterone 5 ug, 14 days, 10 gerbils
  % Inhibition of testosterone-stimulated increase in sebaceous gland pad weight: 54%
[2]; 1 ug topically + testosterone 5 ug, 14 days, 10 gerbils, p<.01 vs testosterone alone
  Mean ± S.E. Sebaceous Gland Pad: 45.6 ± 6.9 mg
[2]; 1.0 ug/animal/day p.o. (so in the source) with 5 ug testosterone topically, vs testosterone alone
  inhibition of sebaceous gland pad weight: ~54%
Hypervitaminosis A test
  undesired side effects such as hypervitaminosis: no undesired side effects such as hypervitaminosis
Hypervitaminosis A test; ip, i.p. in arachis oil, 14 day period, hypervitaminosis A = symptoms adding up to at least 3, read-out: dosage not resulting in hypervitaminosis A (tested up to)
  NOAEL at 336 h: > 400 mg/kg
[3]; 187 fetuses
  external malformations: no external malformations were recorded in any of the 187 fetuses
[3]; examined day 20
  absorption rate: no adverse effects
  fetal weight: no adverse effects
  maternal body weights: no adverse effects
[4]
  adverse effects (skin irritation: erythema, edema of ear skin punches): not to have adverse effects
[5]
  tolerability: well tolerated without toxic symptoms
papilloma; Loeliger et al., Eur. J. Med. Chem., 15, 9 (1980)
  effect on papilloma growth: no effect on papilloma growth
papilloma; after intraperitoneal administration, Loeliger et al. (1980)
  papilloma size: increase in papilloma size

## CCC(=O)O[C@H]1CC[C@H]2[C@@H]3CCC4=CC(=O)CC[C@]4(C)[C@H]3CC[C@]12C [T.P., testosterone propionate, reference compound]
Sebum secretion; 100 ug/rat/day s.c. T.P. alone (0 ug compound), 8 rats, first experiment
  Mean ± S.E. "Sebum": 25.1 ± 1.4 ug/100 ul
Sebum secretion; 100 ug/rat/day s.c. T.P. alone (0 ug compound), 9 rats, second experiment
  Mean ± S.E. "Sebum": 30.1 ± 1.0 ug/100 ul
[1]; T.P. alone, 5 ug, 14 days, 8 hamsters
  Mean ± S.E. Flank Organ: 33.8 ± 2.0 mg

## C[C@]12CC[C@H]3[C@@H](CCC4=CC(=O)CC[C@@]43C)[C@@H]1CC[C@@H]2O [Testosterone, testosterone, reference compound]
[2]; Testosterone alone, 5 ug, 14 days, 10 gerbils
  Mean ± S.E. Sebaceous Gland Pad: 72.5 ± 5.8 mg
